{"source": "patent US12616711B2", "about": "“Therapeutic dendrimer” (Starpharma Pty Ltd, priority 2019, dated 2026)", "key": {"Plasma release study": {"experiment": "Plasma release study", "format": "in vitro ADME", "conditions": "37° C.", "protocol": "The plasma was placed in a CO2 incubator at 3% CO2 at 42% relative humidity to reach a pH of 7.4.\nGemcitabine HCl (28.5 mg) was dissolved in Milli Q water and the resulting stock solution transferred to a 5 mL volumetric flask and diluted to provide working standard solutions.\nThe plasma release study was conducted by adding 1 mL of plasma (centrifuged and filtered) to 0.2 mL of dendrimer solution (approximately 2 mg/mL gemcitabine equivalent in miliQ water) for example dendrimers and a comparator. The mixtures were vortexed (30 sec) then incubated at 37° C. 5% CO2. At various timepoints aliquots (0.1 mL) were removed and added to ACN (0.2 mL). The resulting mixtures were vortexed (30 s), centrifuged (10 min, 4° C.), filtered and analysed by HPLC (C8 Xbridge, 3×100 mm, […], 0.4 mL/min., gradient: 5% ACN/H2O) (0-1 min), 5-80% ACN (1-7 min), 80% ACN (7-12 min), 80-5% ACN (12-13 min), 5% ACN (13-15 min), 100 mM ammonium formate buffer, column temperature 50° C., sample tray 4° C., 260 nm."}, "A549 cells": {"test_system": "A549 cells", "experiment": "alamarBlue viability assay, GI50", "format": "cell-based, human", "conditions": "72 h, given in μM Gemcitabine", "protocol": "(§1) A study was carried out to determine the ability of example dendrimers to inhibit growth of cancer cell lines using an alamarBlue viability assay (Thermo Fisher, DAL1025).\n(§2) The cytotoxicity of compounds toward MDA-MB-231, A549, H460, BxPC3 and CAPAN-1 cells were evaluated for viability. Cells were seeded at a density of 1.2-5×10^3 cells, dependent on cell growth rate, in 96 well plates and incubated overnight. Cells were then treated with serial dilutions of test compositions for 72 h (MDA-MB-231, A549 and H460 lines) or 144 h (BxPC3 and CAPAN-1 lines). For cell viability analysis, 10% media volume of alamar Blue was added during the final 6-8 h of incubation. Reduction of alamarBlue in living cells yields a red fluorescent metabolite that can be read on a plate reader (560 nm excitation/610 nm emission.). Cell viability and subsequent GI50 values were was determined from the blank corrected dose-response curves, with 4-parameter nonlinear curve fit, in GraphPad Prism."}, "CAPAN-1 cells": {"test_system": "CAPAN-1 cells", "experiment": "alamarBlue viability assay, GI50", "format": "cell-based, human", "conditions": "144 h, given in μM Gemcitabine", "protocol": "as §1, §2"}, "BxPC3 cells": {"test_system": "BxPC3 cells", "experiment": "alamarBlue viability assay, GI50", "format": "cell-based", "conditions": "BxPC-3; 144 h; given in μM Gemcitabine", "protocol": "as §1, §2"}, "H460 cells": {"test_system": "H460 cells", "experiment": "alamarBlue viability assay, GI50", "format": "cell-based", "conditions": "72 h, given in μM Gemcitabine", "protocol": "as §1, §2"}, "[1]": {"test_system": "CAPAN-1 tumour xenografts", "experiment": "CAPAN-1 mouse xenograft, alone or with Abraxane or DEP-DTX (Examples 13a, 13b)", "format": "in vivo", "protocol": "Mice were inoculated and tumours sized as described above. On day nineteen after implantation, mice with similar sized tumours (mean tumour volume 100 mm^3) were randomised into 7 groups of 10 animals. […] Abraxane® was dissolved in saline solution immediately prior to dosing.\nAbraxane®, gemcitabine and dendrimers were administered at days 1, 10, and 17 via tail vein i.v. injection, at 0.1 ml/10 g body weight.\nIn an extension of Example 13a, two additional groups of mice were prepared and dosed to assess the anti-tumour efficacy properties of a taxane-dendrimer combined with a nucleoside analogue-dendrimer (e.g. 6). Mice were inoculated and tumours sized as described above.\nDendrimers were administered weekly via tail vein i.v. injection, at 0.1 ml/10 g body weight for 3 weeks.\nAll statistical analyses were performed using GraphPad Prism 8.1."}, "[2]": {"test_system": "CAPAN-1 tumour xenografts", "experiment": "CAPAN-1 mouse xenograft, two conjugates (Example 14)", "format": "in vivo", "conditions": "3 at 6 mg/kg weekly, 6 at 5 mg/kg weekly, Gemcitabine 120 mg/kg twice weekly, 3 weeks i.v.", "protocol": "A CAPAN-1 (human pancreatic adenocarcinoma cell line) mouse xenograft pancreatic cancer model was used to assess the anti-tumour efficacy properties of 3 and 6. NSG (NOD-SCID Interleukin-2 receptor gamma chain null) mice were inoculated and tumours sized as described above. On day 24 after implantation, mice with similar sized tumours (mean tumour volume 100 mm^3) were randomised into four groups of 10 animals for each tumour type. Gemcitabine, 3 and 6 were prepared as described above.\nGemcitabine was administered twice weekly and dendrimers were administered weekly for 3 weeks via tail vein i.v. injection, at 0.1 ml/10 g body weight."}, "A549 tumour xenografts": {"test_system": "A549 tumour xenografts", "experiment": "A549 lung adenocarcinoma mouse xenograft (Example 15)", "format": "in vivo", "conditions": "3 at 6 mg/kg weekly, Gemcitabine 120 mg/kg twice weekly, 3 weeks i.v.", "protocol": "A A549 (human adenocarcinomic human alveolar basal epithelial) cell line was used to assess the anti-tumour efficacy properties of 3. NSG mice were inoculated and tumours sized as described above. On day 30 after implantation, mice with similar sized tumours (mean tumour volume 100 mm^3) were randomised into four groups of 10 animals for each tumour type. Gemcitabine and 3 were prepared as described above.\nGemcitabine was administered twice weekly and dendrimer was administered weekly for 3 weeks via tail vein i.v. injection, at 0.1 ml/10 g body weight."}, "[3]": {"test_system": "OVCAR-3 (human Ovarian Carcinoma cell line) mouse xenograft", "experiment": "OVCAR-3 mouse xenograft, alone or with Carboplatin (Example 16)", "format": "in vivo", "conditions": "3 at 4 mg/kg and 6 mg/kg weekly; Carboplatin 40 mg/kg weekly in combination; 3 weeks i.v.", "protocol": "An OVCAR-3 (human Ovarian Carcinoma cell line) mouse xenograft cancer model was used to assess the anti-tumour efficacy properties of 3 alone or in combination with Carboplatin, compared to Gemcitabine, alone or in combination with Carboplatin. NSG Mice were inoculated and tumours sized as described above. On day twenty nine after implantation, mice with similar sized tumours (mean tumour volume 100 mm^3) were randomised into 10 groups of 10 animals. Gemcitabine and 3 were prepared as described above. DBLCarboplatin (Hospira) was dissolved in saline solution and further diluted in 5% glucose immediately prior to dosing.\nGemcitabine was administered twice weekly and dendrimers and carboplatin were administered weekly for 3 weeks via tail vein i.v. injection, at 0.1 ml/10 g body weight."}}, "data": [{"substance": "[BHA Lys][Lys]30[Lys]32 [Compound 3, [BHA Lys][Lys]30[Lys]32 [(α-NH-TDA-Gemcitabine)32 (ε-NHPEG˜2100)32]]", "values": [{"measurement": "Human Plasma % release", "setting": "Plasma release study; 0 h", "result": 1.81, "unit": "%"}, {"measurement": "Human Plasma % release", "setting": "Plasma release study; 2 h", "result": 3.73, "unit": "%"}, {"measurement": "Human Plasma % release", "setting": "Plasma release study; 4 h", "result": 6.31, "unit": "%"}, {"measurement": "Human Plasma % release", "setting": "Plasma release study; 6 h", "result": 17.74, "unit": "%"}, {"measurement": "Human Plasma % release", "setting": "Plasma release study; 24 h", "result": 34.83, "unit": "%"}, {"measurement": "Human Plasma % release", "setting": "Plasma release study; 30 h", "result": 37.86, "unit": "%"}, {"measurement": "GI50", "setting": "A549 cells", "result": 0.05, "unit": "µM"}, {"measurement": "GI50", "setting": "CAPAN-1 cells", "result": 0.008, "unit": "µM"}, {"measurement": "GI50", "setting": "BxPC3 cells", "result": 0.008, "unit": "µM"}, {"measurement": "GI50", "setting": "H460 cells", "result": 0.077, "unit": "µM"}, {"measurement": "anti-tumour efficacy compared to other groups at day 29", "setting": "[1]; day 29", "result": "significantly more effective than Gemcitabine"}, {"measurement": "Tumour Growth inhibition (%) v vehicle at day 29", "setting": "[1]; day 29, i.v., Gemcitabine 120, Abraxane 40, 3 at 6.5, 6 at 5 (day 1) then 4, DEP-DTX 24 (10 in combination) mg/kg", "result": 103, "unit": "%"}, {"measurement": "anti-tumour efficacy compared to other groups over the dosing study (FIG. 6)", "setting": "[1]; out to day 82", "result": "more effective than Gemcitabine and also more effective than the combination of gemcitabine and Abraxane®"}, {"measurement": "anti-tumour efficacy compared to other groups (FIG. 7)", "setting": "[2]", "result": "significantly more effective than Gemcitabine or 6"}, {"measurement": "anti-tumour efficacy compared to Gemcitabine (FIG. 8)", "setting": "A549 tumour xenografts", "result": "more effective than Gemcitabine"}, {"measurement": "anti-tumour efficacy compared to other groups (FIG. 9)", "setting": "[3]", "result": "more effective than Gemcitabine"}]}]}
